Patent publication US20200316230A1, “DEVICES AND METHODS FOR RADIOPHARMACEUTICAL SYNTHESIS” (VANDERBILT UNIVERSITY, priority 2019, published 2020)

Experiment: microPET imaging of rat brain with [^18F]fallypride produced in the microfluidic chip
Format: in vivo
Conditions: microPET for about 2 hours, dose of about 300 μCi injected
Description: To further verify the utility of the resulting [^18F]fallypride, we produced (using the integrated microfluidic chip) a dose of about 300 μCi with about 19.55 Ci/μmol (723.35 GBq/μmol) of specific activity and about 98.62% of radiochemical purity, and obtained PET data from a rat brain. The time point used to calculate the specific activity was at the end of production, namely the time when the purified [^18F]fallypride was retrieved from chip. The rat was brought to the imaging lab to habituate about 3 hours prior to imaging. Sbout 0.1 ml purified [^18F] fallypride was filtered through an about 0.45 μm filter (Millex-HV) and about 0.9 ml saline was added to formulate the PET probe used for rat injection. […] The accumulation and pharmacokinetics of [^18F]fallypride were as expected when evaluated in the rat brain.

C=CCN1CCC[C@H]1CNC(=O)c1cc(CCC[18F])cc(OC)c1OC [[^18F]fallypride]
accumulation and pharmacokinetics of [^18F]fallypride in the rat brain: as expected
